The term Kd denotes the concentration at which binding is half-saturated. The term IC50 denotes the midpoint of a concentration-inhibition curve.

Experiment [1] deals with T1, PDGFRβ (Homo sapiens, UniProt P09619).
T1 construct: made in house
Briefly: Competition binding assay, PDGFRβ Kd. Put shortly:
(§1)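 Phage-fused or HEK-293/DNA-tagged kinase + ligand-coated streptavidin beads + compound, 1 h RT with shaking. Wash, elute with free ligand 30 min RT, qPCR of eluted kinase. Kd: 11-point 3-fold series.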

The target of experiment [2] is T2, CSF1R (Homo sapiens, UniProt P07333). Briefly: Competition binding assay, CSF1R Kd. Further details: made in house. Put shortly:
as §1

Experiment [3] addresses T2, CSF1R. Briefly: HEK293 CSF1R phosphorylation MSD assay. Format: cell-based. Further details: expressed in transfected cells; host or cells: HEK293. Particulars: read-out: HEK293 pCSF1R M-CSF MSD:IC50. Put shortly:
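Ligand-induced CSF1R autophosphorylation was measured by MSD sandwich assay: CSF1R-FKBP from lysates captured via FK506, anti-phosphotyrosine readout. Cells were exposed to compound for 2 h (9-point, half-log, 0.5% DMSO) before 5 min 50 ng/mL M-CSF. Reported IC50 is the mean of duplicate-plate IC50s relative to DMSO control.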

For experiment [4], the target named is T3, KIT (Homo sapiens, UniProt P10721).
T3 construct: made in house
T3 sequence (P10721 26-976): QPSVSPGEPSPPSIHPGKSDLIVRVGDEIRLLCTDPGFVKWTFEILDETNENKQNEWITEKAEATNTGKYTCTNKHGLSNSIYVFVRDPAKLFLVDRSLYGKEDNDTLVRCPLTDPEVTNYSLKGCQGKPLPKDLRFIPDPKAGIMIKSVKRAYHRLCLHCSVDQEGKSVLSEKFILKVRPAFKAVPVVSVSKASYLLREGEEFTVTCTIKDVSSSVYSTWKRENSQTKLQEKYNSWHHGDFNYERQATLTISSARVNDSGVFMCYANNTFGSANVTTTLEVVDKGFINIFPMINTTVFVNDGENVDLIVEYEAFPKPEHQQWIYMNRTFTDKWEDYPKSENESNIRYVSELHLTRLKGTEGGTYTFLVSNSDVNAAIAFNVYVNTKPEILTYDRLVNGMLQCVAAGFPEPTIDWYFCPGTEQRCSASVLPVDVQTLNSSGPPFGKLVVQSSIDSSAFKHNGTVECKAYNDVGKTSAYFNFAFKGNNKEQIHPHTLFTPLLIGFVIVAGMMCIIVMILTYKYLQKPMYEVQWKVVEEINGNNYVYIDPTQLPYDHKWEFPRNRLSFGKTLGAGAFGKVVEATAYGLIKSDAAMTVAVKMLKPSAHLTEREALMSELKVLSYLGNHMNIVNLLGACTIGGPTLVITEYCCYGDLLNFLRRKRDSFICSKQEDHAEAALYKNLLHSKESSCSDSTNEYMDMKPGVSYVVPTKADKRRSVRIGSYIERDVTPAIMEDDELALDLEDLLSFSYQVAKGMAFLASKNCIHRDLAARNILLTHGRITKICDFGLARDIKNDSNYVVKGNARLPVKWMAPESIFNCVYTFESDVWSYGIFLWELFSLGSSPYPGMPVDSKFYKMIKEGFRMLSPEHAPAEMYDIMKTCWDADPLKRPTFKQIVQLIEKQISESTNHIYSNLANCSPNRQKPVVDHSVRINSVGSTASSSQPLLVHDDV
Briefly: Competition binding assay, KIT Kd. Put shortly:
as §1

In experiment [5] the target is kinase panel containing either 386 or 392 distinct kinases. Briefly: Kinase selectivity score S10 from competition binding panel. An outline of the steps: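 S10 is the number of kinases with percent-of-control under 10, divided by all distinct wild-type kinases tested, from a single 10 μM concentration. Binding measured by qPCR of kinase recovered from ligand-coated beads after 1 h equilibrium at room temperature; kinases were phage fusions or DNA-tagged HEK-293 products.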

Setting [6] is: HEK293 cells, M-CSF stimulated CSF1R phosphorylation, MSD.
Setting [7] is: 10 μM, panel of 386 or 392 distinct kinases.
Setting [8] is: 2 h compound, human M-CSF 50 ng/mL for 5 min.
Where [9] appears, read: compounds at 10 μM, 386 or 392 distinct kinases.

Like-named read-outs stand apart in the source and are kept apart here.

T1 sequence (P09619 33-1106): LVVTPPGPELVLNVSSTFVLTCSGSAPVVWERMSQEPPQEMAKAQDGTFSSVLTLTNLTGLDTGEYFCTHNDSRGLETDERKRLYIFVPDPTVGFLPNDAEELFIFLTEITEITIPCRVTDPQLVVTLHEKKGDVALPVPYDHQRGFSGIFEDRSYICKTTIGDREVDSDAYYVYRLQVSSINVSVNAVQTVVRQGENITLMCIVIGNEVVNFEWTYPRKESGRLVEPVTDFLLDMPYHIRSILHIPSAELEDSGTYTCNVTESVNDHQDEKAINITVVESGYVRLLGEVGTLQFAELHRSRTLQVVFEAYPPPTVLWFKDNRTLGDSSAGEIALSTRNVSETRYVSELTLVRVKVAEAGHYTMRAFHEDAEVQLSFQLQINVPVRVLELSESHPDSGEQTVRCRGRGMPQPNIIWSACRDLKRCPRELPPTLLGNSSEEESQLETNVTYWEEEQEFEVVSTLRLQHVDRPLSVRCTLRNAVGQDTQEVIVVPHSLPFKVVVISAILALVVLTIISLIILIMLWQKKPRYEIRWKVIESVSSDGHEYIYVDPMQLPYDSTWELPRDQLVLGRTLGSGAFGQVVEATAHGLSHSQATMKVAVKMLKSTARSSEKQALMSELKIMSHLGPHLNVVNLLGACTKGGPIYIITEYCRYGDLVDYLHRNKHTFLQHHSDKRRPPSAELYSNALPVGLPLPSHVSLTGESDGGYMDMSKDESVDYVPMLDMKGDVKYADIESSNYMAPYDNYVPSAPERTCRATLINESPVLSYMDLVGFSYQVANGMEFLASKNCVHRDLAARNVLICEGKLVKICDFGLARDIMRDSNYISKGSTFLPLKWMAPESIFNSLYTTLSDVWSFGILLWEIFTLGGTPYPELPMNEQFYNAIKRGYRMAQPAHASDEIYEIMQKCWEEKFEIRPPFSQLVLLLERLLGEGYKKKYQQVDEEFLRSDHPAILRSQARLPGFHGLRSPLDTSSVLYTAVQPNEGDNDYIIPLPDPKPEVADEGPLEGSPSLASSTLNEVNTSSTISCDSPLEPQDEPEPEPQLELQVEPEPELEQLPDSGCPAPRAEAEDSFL
T2 sequence (P07333 20-972): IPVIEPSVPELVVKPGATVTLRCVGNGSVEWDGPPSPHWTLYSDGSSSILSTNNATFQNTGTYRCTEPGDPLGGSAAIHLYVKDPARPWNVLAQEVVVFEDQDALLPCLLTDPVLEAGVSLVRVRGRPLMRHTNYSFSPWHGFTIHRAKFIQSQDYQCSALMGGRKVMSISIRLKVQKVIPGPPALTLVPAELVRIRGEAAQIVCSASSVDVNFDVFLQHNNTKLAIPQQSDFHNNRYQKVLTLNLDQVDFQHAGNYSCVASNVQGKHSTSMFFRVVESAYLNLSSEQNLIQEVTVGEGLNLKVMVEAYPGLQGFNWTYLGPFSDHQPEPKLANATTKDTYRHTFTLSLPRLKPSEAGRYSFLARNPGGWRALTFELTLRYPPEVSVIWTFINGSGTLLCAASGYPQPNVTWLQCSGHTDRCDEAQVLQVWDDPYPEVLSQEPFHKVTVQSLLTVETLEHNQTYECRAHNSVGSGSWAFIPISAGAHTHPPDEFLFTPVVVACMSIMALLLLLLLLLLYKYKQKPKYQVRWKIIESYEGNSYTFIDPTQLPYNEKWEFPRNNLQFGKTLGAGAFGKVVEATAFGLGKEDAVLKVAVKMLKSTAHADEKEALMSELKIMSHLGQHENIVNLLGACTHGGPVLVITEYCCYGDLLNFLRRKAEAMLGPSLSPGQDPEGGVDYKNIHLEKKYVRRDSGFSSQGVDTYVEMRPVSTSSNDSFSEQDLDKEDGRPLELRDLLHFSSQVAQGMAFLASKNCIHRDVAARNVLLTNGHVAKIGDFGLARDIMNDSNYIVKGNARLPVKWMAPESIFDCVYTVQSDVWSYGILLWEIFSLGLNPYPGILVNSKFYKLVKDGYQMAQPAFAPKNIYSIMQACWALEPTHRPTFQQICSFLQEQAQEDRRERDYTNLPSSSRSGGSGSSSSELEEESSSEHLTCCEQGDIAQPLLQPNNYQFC

Regarding `O[C@@H]1CCCC[C@H]1Nc1nc2ccc(Cc3cnc4cc(-n5nccn5)ccn34)cc2s1` [Example 215, (1R,2R)-2-((6-((7-(2H-1,2,3-triazol-2-yl)imidazo[1,2-a]pyridin-3-yl)methyl)benzo[d]thiazol-2-yl)amino)cyclohexanol], the figures for the dissociation constant Kd in experiment [1] (competition binding), in experiment [2] (competition binding) and in experiment [4] (competition binding) were 0.5 to 2 µM, 0.005 to 0.02 µM and 0.5 to 2 µM, respectively. Further, in experiment [3] (setting [6]), the half-inhibitory concentration (IC50) was 0.05 to 0.2 µM. Further, the “Kinase specificity S(10)” value in experiment [5] (setting [7]) is listed as “A (A≤0.01)”.

On to `O[C@@H]1Cc2ccccc2[C@H]1Nc1nc2ccc(Cn3cnc4ccc(Br)nc43)cc2s1` [Example 80, (1R,2R)-1-((6-((5-bromo-3H-imidazo[4,5-b]pyridin-3-yl)methyl)benzo[d]thiazol-2-yl)amino)-2,3-dihydro-1H-inden-2-ol], for which the Kd was at most 0.05 µM in experiment [1], 0.005 to 0.02 µM in experiment [2] and at most 0.1 µM in experiment [4]. Besides, the IC50 in experiment [3] (setting [8]) is at most 0.05 µM. The “Kinase specificity S(10)” value in experiment [5] (setting [9]) is listed as “B (0.01<B≤0.02)”.

Take `CC(=O)NCc1cnc2c(c1)ncn2Cc1ccc2nc(N[C@@H]3CCCC[C@H]3O)sc2c1` [Example 99, N-((3-((2-(((1R,2R)-2-hydroxycyclohexyl)amino)benzo[d]thiazol-6-yl)methyl)-3H-imidazo[4,5-b]pyridin-6-yl)methyl)acetamide]: the figures for the Kd in experiment [1], in experiment [2] and in experiment [4] were 0.5 to 2 µM, above 0.05 µM and above 2 µM, respectively. In addition, the IC50 in experiment [3] (setting [8]) is 0.2 to 0.5 µM. Moreover, in experiment [5] (setting [9]), the “Kinase specificity S(10)” value is recorded as “A (A≤0.01)”.

Take `O[C@@H]1CCCC[C@H]1Nc1nc2ccc(Cn3cnc4cc(C5CC5)cnc43)cc2s1` [Example 45, (1R,2R)-2-((6-((6-cyclopropyl-3H-imidazo[4,5-b]pyridin-3-yl)methyl)benzo[d]thiazol-2-yl)amino)cyclohexanol]: the Kd is at most 0.05 µM in experiment [1], at most 0.005 µM in experiment [2] and at most 0.1 µM in experiment [4]. Also, in experiment [3] (setting [8]), the IC50 was at most 0.05 µM. The “Kinase specificity S(10)” value in experiment [5] (setting [9]) was “B (0.01<B≤0.02)”.

In the case of `C=Cc1cc(F)c2c(c1)ncn2Cc1ccc2nc(N[C@@H]3CCCC[C@H]3O)sc2c1` [Example 207, (1R,2R)-2-((6-((7-fluoro-5-vinyl-1H-benzo[d]imidazol-1-yl)methyl)benzo[d]thiazol-2-yl)amino)cyclohexanol], the dissociation constant Kd is at most 0.05 µM in experiment [1] (competition binding), 0.005 to 0.02 µM in experiment [2] (competition binding) and at most 0.1 µM in experiment [4] (competition binding). In addition, in experiment [3] (setting [6]), the IC50 was 0.05 to 0.2 µM. Besides, in experiment [5] (setting [7]), the “Kinase specificity S(10)” value is “B (0.01<B≤0.02)”.

Consider `O[C@@H]1CCCC[C@H]1Nc1nc2ccc(Cn3cnc4cc(Br)cc(F)c43)cc2s1` [Example 203, (1R,2R)-2-((6-((5-bromo-7-fluoro-1H-benzo[d]imidazol-1-yl)methyl)benzo[d]thiazol-2-yl)amino)cyclohexanol], for which the Kd in experiment [1] (competition binding) was 0.05 to 0.5 µM; in experiment [2] (competition binding) it was 0.005 to 0.02 µM; in experiment [4] (competition binding), at most 0.1 µM. Besides, the IC50 in experiment [3] (setting [6]) is 0.05 to 0.2 µM. In experiment [5] (setting [7]), the “Kinase specificity S(10)” value is “A (A≤0.01)”.

For the compound “either (1R,2R)-2-((6-((3H-imidazo[4,5-b]pyridin-3-yl)methyl)benzo[d]thiazol-2-yl)amino)-1-methylcyclohexanol or (1S,2R)-2-((6-((3H-imidazo[4,5-b]pyridin-3-yl)methyl)benzo[d]thiazol-2-yl)amino)-1-methylcyclohexanol [Example 60]”, the Kd in experiment [1] is at most 0.05 µM; in experiment [2], 0.005 to 0.02 µM; in experiment [4] it was 0.1 to 0.5 µM. Also, the IC50 in experiment [3] (setting [8]) lay in the range of 0.05 to 0.2 µM. In addition, the “Kinase specificity S(10)” value in experiment [5] (setting [9]) was “B (0.01<B≤0.02)”.

In the case of `O[C@@H]1CCCC[C@H]1Nc1nc2ccc(Cn3cnc4cncnc43)cc2s1` [Example 48, (1R,2R)-2-((6-((9H-purin-9-yl)methyl)benzo[d]thiazol-2-yl)amino)cyclohexanol], the Kd in experiment [1] is 0.05 to 0.5 µM; in experiment [2], 0.005 to 0.02 µM; in experiment [4], 0.5 to 2 µM. In addition, the IC50 in experiment [3] (setting [8]) lay in the range of 0.05 to 0.2 µM. Further, the “Kinase specificity S(10)” value in experiment [5] (setting [9]) was “A (A≤0.01)”.

`ON=C1CCCC[C@H]1Nc1nc2ccc(Cn3cnc4cccnc43)cc2s1` [Example 58, (R)-2-((6-((3H-imidazo[4,5-b]pyridin-3-yl)methyl)benzo[d]thiazol-2-yl)amino)cyclohexanone oxime]: the Kd in experiment [1] was at most 0.05 µM; in experiment [2], at most 0.005 µM; in experiment [4], at most 0.1 µM. The half-inhibitory concentration (IC50) in experiment [3] (setting [8]) lay in the range of 0.05 to 0.2 µM. In addition, in experiment [5] (setting [9]), the “Kinase specificity S(10)” value was “B (0.01<B≤0.02)”.

In the case of `CC(=O)c1ccn2c(Cc3ccc4nc(N[C@@H]5CCCC[C@H]5O)sc4c3)cnc2c1` [Example 200, 1-(3-((2-(((1R,2R)-2-hydroxycyclohexyl)amino)benzo[d]thiazol-6-yl)methyl)imidazo[1,2-a]pyridin-7-yl)ethanone], the Kd is 0.05 to 0.5 µM in experiment [1] (competition binding), 0.005 to 0.02 µM in experiment [2] (competition binding) and 0.5 to 2 µM in experiment [4] (competition binding). Also, the IC50 in experiment [3] (setting [6]) lay in the range of 0.05 to 0.2 µM. The “Kinase specificity S(10)” value in experiment [5] (setting [7]) is “A (A≤0.01)”.

For `OC[C@@H](Nc1nc2ccc(Cn3cnc4cccnc43)cc2s1)C1CCCCC1` [Example 63, (S)-2-((6-((3H-imidazo[4,5-b]pyridin-3-yl)methyl)benzo[d]thiazol-2-yl)amino)-2-cyclohexylethanol], the results for the dissociation constant Kd in experiment [1], in experiment [2] and in experiment [4] were at most 0.05 µM, 0.005 to 0.02 µM and at most 0.1 µM, respectively. Also, the IC50 in experiment [3] (setting [8]) is 0.05 to 0.2 µM. The “Kinase specificity S(10)” value in experiment [5] (setting [9]) is reported as “C (C>0.02)”.

Turning to `COc1cc2ncn(Cc3ccc4nc(N[C@@H](C)C5CCCCC5)sc4c3)c2cc1OC` [Example 33, (S)—N-(1-cyclohexylethyl)-6-((5,6-dimethoxy-1H-benzo[d]imidazol-1-yl)methyl)benzo[d]thiazol-2-amine], the values for the Kd in experiment [1], in experiment [2] and in experiment [4] were at most 0.05 µM, 0.005 to 0.02 µM and at most 0.1 µM, respectively. Also, the IC50 in experiment [3] (setting [8]) lay within 0.05 to 0.2 µM. Also, the “Kinase specificity S(10)” value in experiment [5] (setting [9]) is listed as “C (C>0.02)”.

Turning to `O[C@@H]1CCCC[C@H]1Nc1nc2ccc(Cc3cnc4cc(-n5ccnc5)ccn34)cc2s1` [Example 214, (1R,2R)-2-((6-((7-(1H-imidazol-1-yl)imidazo[1,2-a]pyridin-3-yl)methyl)benzo[d]thiazol-2-yl)amino)cyclohexanol], the Kd in experiment [1] (competition binding) was 0.05 to 0.5 µM; in experiment [2] (competition binding), at most 0.005 µM; in experiment [4] (competition binding) it was 0.1 to 0.5 µM. The 50% inhibitory concentration (IC50) in experiment [3] (setting [6]) is at most 0.05 µM. Further, the “Kinase specificity S(10)” value in experiment [5] (setting [7]) is recorded as “B (0.01<B≤0.02)”.

With `OC1(CNc2nc3ccc(Cn4cnc5cccnc54)cc3s2)CCCCC1` [Example 75, 1-(((6-((3H-imidazo[4,5-b]pyridin-3-yl)methyl)benzo[d]thiazol-2-yl)amino)methyl)cyclohexanol], the figures for the Kd in experiment [1], in experiment [2] and in experiment [4] were at most 0.05 µM, 0.005 to 0.02 µM and at most 0.1 µM, respectively. Further, the concentration for half-maximal inhibition (IC50) in experiment [3] (setting [8]) lay in the range of 0.05 to 0.2 µM. Also, the “Kinase specificity S(10)” value in experiment [5] (setting [9]) is “C (C>0.02)”.

`OC[C@@H]1CCCC[C@H]1Nc1nc2ccc(Cn3cnc4cccnc43)cc2s1` [Example 66, ((1R,2R)-2-((6-((3H-imidazo[4,5-b]pyridin-3-yl)methyl)benzo[d]thiazol-2-yl)amino)cyclohexyl)methanol]: the Kd lay within 0.05 to 0.5 µM in experiment [1], 0.005 to 0.02 µM in experiment [2] and 0.5 to 2 µM in experiment [4]. For the same compound, in experiment [3] (setting [8]), the IC50 was in the range of 0.05 to 0.2 µM. In addition, in experiment [5] (setting [9]), the “Kinase specificity S(10)” value was “A (A≤0.01)”.

Turning to `OC1CCN(c2ccn3c(Cc4ccc5nc(N[C@@H]6CCCC[C@H]6O)sc5c4)cnc3c2)CC1` [Example 199, 1-(3-((2-(((1R,2R)-2-hydroxycyclohexyl)amino)benzo[d]thiazol-6-yl)methyl)imidazo[1,2-a]pyridin-7-yl)piperidin-4-ol], the figures for the equilibrium dissociation constant (Kd) in experiment [1] (competition binding), in experiment [2] (competition binding) and in experiment [4] (competition binding) were above 2 µM, 0.005 to 0.02 µM and above 2 µM, respectively. For the same compound, the IC50 in experiment [3] (setting [6]) was in the range of 0.2 to 0.5 µM. Also, the “Kinase specificity S(10)” value in experiment [5] (setting [7]) is on record as “A (A≤0.01)”.

Take `COc1cc2ncn(Cc3ccc4nc(NCC5CCCCC5)oc4c3)c2cc1OC` [Example 35, N-(cyclohexylmethyl)-6-((5,6-dimethoxy-1H-benzo[d]imidazol-1-yl)methyl)benzo[d]oxazol-2-amine]: the Kd was at most 0.05 µM in experiment [1], at most 0.005 µM in experiment [2] and at most 0.1 µM in experiment [4]. Besides, the IC50 in experiment [3] (setting [8]) was at most 0.05 µM. Besides, the “Kinase specificity S(10)” value in experiment [5] (setting [9]) is “C (C>0.02)”.

As for `O[C@@H]1CCCC[C@H]1Nc1nc2ccc(Cn3cnc4cc(CN5CCOCC5)cnc43)cc2s1` [Example 82, (1R,2R)-2-((6-((6-(morpholinomethyl)-3H-imidazo[4,5-b]pyridin-3-yl)methyl)benzo[d]thiazol-2-yl)amino)cyclohexanol], the values for the Kd in experiment [1], in experiment [2] and in experiment [4] were 0.05 to 0.5 µM, 0.005 to 0.02 µM and 0.5 to 2 µM, respectively. Moreover, in experiment [3] (setting [8]), the IC50 lay in the range of 0.2 to 0.5 µM. Moreover, in experiment [5] (setting [9]), the “Kinase specificity S(10)” value is reported as “A (A≤0.01)”.

As to `O[C@@H]1CCCC[C@H]1Nc1nc2ccc(Cc3cnc4cc(-n5ccnn5)ccn34)cc2s1` [Example 218, (1R,2R)-2-((6-((7-(1H-1,2,3-triazol-1-yl)imidazo[1,2-a]pyridin-3-yl)methyl)benzo[d]thiazol-2-yl)amino)cyclohexanol], the Kd in experiment [1] (competition binding) lay within 0.05 to 0.5 µM; in experiment [2] (competition binding) it was 0.005 to 0.02 µM; in experiment [4] (competition binding), 0.5 to 2 µM. Besides, the IC50 in experiment [3] (setting [6]) is at most 0.05 µM. Also, the “Kinase specificity S(10)” value in experiment [5] (setting [7]) is listed as “A (A≤0.01)”.

For the origin of these results see US9938261B2, “Heterocyclic compounds and methods of use thereof” (AMBIT BIOSCIENCES CORPORATION, priority 2011, dated 2018).
